# Assays:
# [1] = tested on: electroconvulsive threshold (tonic convulsions); assay: Electroconvulsive Threshold Test (ECT); format: in vivo, rats; conditions: rats, 3, 10 and 30 mpk p.o., mesylate salt
# Method: Rats were administered ECS (rectangular current: 0.6 ms pulse width, 1.5 s duration, 200 Hz) via earclip electrodes connected to a constant current shock generator (Ugo Basile: type 7801). Test compounds were administered by oral gavage (p.o.) 1 hour before the test at a dose volume of 5 mL/kg.
# Treatment groups of 20 rats were exposed to ECS as follows: The first animal was exposed to 30 mA of ECS. […] (increases of 5 mA) until the first tonic convulsion was observed. Once the first tonic convulsion was observed, the intensity of ECS was decreased by 2 mA for the next animal and then decreased or increased by 2 mA from animal to animal depending on whether the previous animal convulsed or not. If the first animal did convulse (tonic convulsions) within 5 seconds, animal n°2 is exposed to 25 mA, etc . . . (decreases of 5 mA) until the absence of tonic convulsions was observed. At this point, the intensity of ECS was increased by 2 mA for the next animal and then decreased or increased by 2 mA from animal to animal depending on whether the previous animal convulsed or not. The minimum current intensity applied is 5 mA and the maximum 95 mA. The first 5 animals serve to approach threshold current and were not included in the analysis. The results are presented as the mean current intensity administered to the final 15 animals of a group. The test was performed blind. A positive percent change indicates an anticonvulsant effect. A negative percent change indicates a proconvulsant effect. The test substance was evaluated at 4 doses, typically using 0.5% dimethylsulfoxide, 4% hydroxypropyl-b-cyclodextrin water as a vehicle, and administered p.o. 60 minutes before ECS, and compared with a vehicle control group. Diazepam (16 mg/kg p.o.), administered under the same experimental conditions, was used as reference substance. The experiment included 6 groups. Data with the test substance was analyzed by comparing treated groups with vehicle control using one-way ANOVA followed by Dunnett's t tests.
# [2] = tested on: KCl-induced cortical spreading depression; assay: Cortical spreading depression (CSD), aura phase of migraine model; format: in vivo; conditions: rats, mesylate salt
# Method: The cortical spreading depression model is utilized to investigate whether treatment with compounds of the present invention affect electrophysiological and hemodynamic events in a rat model of migraine.
# Rats were anesthetized with 5% isoflurane (in 70% N2O and 30% O2; flow 300 ml/min) and placed in a stereotactic frame. […] The rectal temperature was maintained at 37.0±1.0° C. with a homeothermic blanket system. The skin was opened by a medial incision and retracted laterally. Three burr holes were drilled under saline cooling over the right hemisphere at the following coordinates (mm from bregma): (1) posterior 4.5, lateral, 2.0 (occipital cortex): KCl application site; (2) posterior 0.5, lateral 2.0 (parietal cortex): LDF recording site; (3) anterior 2, lateral 2 (frontal cortex): DC potential recording site. A laser-Doppler flow probe (Oxyflow, Oxford Optronics, UK) to monitor CBF and an invasive Ag/AgCl electrode for measuring direct current (DC) potential shifts were placed in the parietal and frontal cortex burr holes on the intact dura and in the cortex, respectively. The laser-Doppler flow probe was positioned in an area free of large pial and dural vessels to minimize a large-vessel contribution to the signal. For the DC-potential measurement, a reference electrode was fixed in the neck. Dura overlying the occipital cortex was gently removed and care was taken to avoid bleeding. After surgical preparation, the cortex was allowed to recover for 15 minutes under saline irrigation. A cotton ball (2 mm diameter) soaked with 1M KCl was placed on the pial surface and kept moist by placing 5 μl of KCl solution every 15 minutes. Test compound or vehicle was administered ten (10) minutes prior to CSD initiation. […] The number of KCl-induced CSDs was counted for 2 hours. The CBF and DC-potentials were monitored continuously starting from 5 minutes before KCl exposure.
# Test compound E1-1.2 was administered as a mesylate salt (mpk based on molecular weight of the mesylate salt).
# The data was collected in Windaq acquisition software (Dataq Instruments, USA) at 20 kHz. The raw data was analyzed in Clampfit program (Axon Instruments, USA). The signals were low pass filtered (cut off range 5-10000 Hz) that CSD episodes in DC and CBF could be confirmed. The following parameters were analyzed: i) the number, duration and amplitude of DC-potentials, and ii) the number and amplitude of CBF events.
# Doses were given as milligram per kilogram (mpk). […] Bars represent mean±Standard Error of Mean (SEM), and differences were considered to be statistically significant at the P<0.05 level (n=8, * different from vehicle group). Statistical analysis was performed using StatsDirect statistical software. Differences between groups were analyzed by using 1-way ANOVA and Dunnett's post hoc test.
# [3] = tested on: formalin-induced nociceptive behavior; assay: Rat Formalin Model; format: in vivo; conditions: rat, 10, 30 and 60 mpk i.p., mesylate salt
# Method: The rat formalin model is a tonic model of continuous pain resulting from formalin-induced spontaneous nociceptive behaviors. Intra-paw injection of formalin is a commonly used model to measure spontaneous nociceptive behaviors in rodents (Dubuisson, D. and Dennis, S. G. Pain 4:161, 1977). Subcutaneous plantar injection of formalin causes a bi-phasic nocifensive behavioral response in rodents. The early phase (phase-I) lasts for about 5-10 min following which an interphase occurs without any discernible nociceptive reactions after which the late phase (phase-II) nociceptive reaction ensues continuing from about 20-60 min following formalin injection. Formalin model is a model of tonic, persistent pain, and is widely used for rapid screening of novel analgesic compounds. […] In the present example, effects of test item were assessed in 0-5 minutes from the early phase (phase-I) and 20-35 minutes from the late phase (phase-II) of formalin-induced nociceptive behavior. […]
# For all groups, animals were acclimated to the observation chamber for 15 minutes immediately prior to formalin injection. All animals received an intraplantar subcutaneous injection of 50 μL of 5% formalin into the left hind paw and then placed immediately into an observation chamber and formalin-evoked spontaneous nociceptive behaviors in the rats were continuously recorded for 0-60 min using a commercial camcorder. […]
smiles,measurement,setting,value
"Cc1ccc(COC(=O)N2CC[C@H](CNc3nccn4cnnc34)C(F)(F)C2)cc1 [Compound E1-1.2, (+)-R-4-methylbenzyl 4-(([1,2,4]triazolo[4,3-a]pyrazin-8-ylamino)methyl)-3,3-difluoropiperidine-1-carboxylate]",activity on electroconvulsive threshold,[1],robust anticonvulsant activity
same,number of CBF events vs vehicle,[2]; 10 mg/kg,decreased
same,number of DC potentials vs vehicle group,"[2]; 3 mpk, 10 mpk and 30 mpk",significantly decreased
same,magnitude of CBF vs vehicle,[2],unchanged
same,amplitude of DC potentials vs vehicle,[2]; various doses,not statistically different
same,duration of DC potentials vs vehicle,[2]; various doses,not statistically different
same,cumulative time spent on nociceptive behavior in phase I (0-5 mins),[3],decreased
same,cumulative time spent on nociceptive behavior in phase II (20-35 mins),[3],decreased
